In patent US11701434B2, “Tertiary amino lipidated cationic peptides for nucleic acid delivery” (Nutcracker Therapeutics, Inc., priority 2018, dated 2023):

Tests used:
[1] = mRNA encapsulation by Qubit RNA HS dye fluorescence before and after Triton X-100 lysis; type: physicochemical; conditions: Fluc mRNA/peptoid formulation, 5:1 mass ratio peptoid:cargo
Procedure: (§1) In standard formulations, the tertiary amino lipidated and/or PEGylated cationic peptide compound is dissolved in anhydrous ethanol at a concentration of 0.5 mg/mL (for in vitro experiments) or 5 mg/mL (for in vivo experiments). The resulting solutions are stable at room temperature, but should be stored at −20° C. The nucleic acid cargo is dissolved in DNAse or RNAse-free water at a final concentration of 0.2 mg/mL (for in vitro experiments) or 1 mg/mL (for in vivo experiments). These solutions should be stored at −20° C. or at −78° C. for longer time periods. To prepare nanoparticle formulations, the tertiary amino lipidated and/or PEGylated cationic peptide compound is mixed by pipetting with nucleic acid at a mass ratio between approximately 1:1 (peptide compound:cargo) and 20:1. Prior to formulation, tertiary amino lipidated and/or PEGylated cationic peptide compounds and cargo (such as nucleic acid) are diluted in ethanol and acidic buffer (PBS adjusted to pH 5.5 with 0.1 M HCl) respectively to a volume ratio of 1:3 and to target a final cargo concentration of approximately 0.05 mg/mL to 0.2 mg/mL. The exemplary amino lipidated cationic peptoids 1-36 described in Example 2 were combined with firefly luciferase (Flue) mRNA to form nanoparticle compositions to be evaluated for therapeutic and/or prophylactic purposes in vitro or in vivo. The formulations were prepared according to the protocol of Example 3 and mixed by simple pipetting. The mRNA/peptoid formulation at a 5:1 mass ratio of peptoid:cargo were evaluated by dynamic light scattering (DLS) in order to determine the volume average particle size/diameter (nm) of the mRNA/peptoid complex and the size polydispersity index (PDI) within the formulation. The percentage of mRNA encapsulation for each formulation of the exemplary compounds were determined by fluorescence of the Qubit RNA HS (Invitrogen) dye before and after lysis of particles by Triton X-100.

[2] = Dynamic light scattering (DLS) of Fluc mRNA/peptoid formulations: particle size and polydispersity; type: physicochemical; conditions: 5:1 mass ratio peptoid:cargo; for Size (volume average particle size/diameter): Fluc mRNA/peptoid complex; for Size PDI (size polydispersity index): Fluc mRNA/peptoid formulation
Procedure: as §1

| SMILES | % Encapsulation (percentage of mRNA encapsulation) [1] | Size (volume average particle size/diameter) [2] | Size PDI (size polydispersity index) [2] |
| --- | --- | --- | --- |
| CCCCCCCCCCN(CC(N)=O)C(=O)CN(CCCCCCCCCC)C(=O)CN(CCCCCCCCCC)C(=O)CN(CCc1ccccc1)C(=O)CN(CCc1ccccc1)C(=O)CN(CCN)C(=O)CN(CCc1ccccc1)C(=O)CN(CCc1ccccc1)C(=O)CN(CCN)C(=O)CN(CCc1ccccc1)C(=O)CN(CCc1ccccc1)C(=O)CNCCN [Compound 7] | 88.4% | 296.7 nm | 0.177 |
| CCCCCCCCCCN(CC(N)=O)C(=O)CN(CCCCCCCCCC)C(=O)CN(CCCCCCCCCC)C(=O)CN(CCCCCCCCCC)C(=O)CN(CCc1ccccc1)C(=O)CN(CCc1ccccc1)C(=O)CN(CC1CCNCC1)C(=O)CN(CCc1ccccc1)C(=O)CN(CCc1ccccc1)C(=O)CN(CC1CCNCC1)C(=O)CN(CCc1ccccc1)C(=O)CN(CCc1ccccc1)C(=O)CN(CC1CCNCC1)C(=O)CN(CCc1ccccc1)C(=O)CN(CCc1ccccc1)C(=O)CNCC1CCNCC1 [Compound 32] | 50.9% | 247.5 nm | 0.274 |
| CCCCCCCCN(CC(N)=O)C(=O)CN(CCCCCCCC)C(=O)CN(CCc1ccccc1)C(=O)CN(CCc1ccccc1)C(=O)CN(CCN)C(=O)CN(CCc1ccccc1)C(=O)CN(CCc1ccccc1)C(=O)CN(CCN)C(=O)CN(CCc1ccccc1)C(=O)CN(CCc1ccccc1)C(=O)CNCCN [Compound 1] | 90.1% | 356.9 nm | 0.047 |
| CCCCCCCCCCN(CC(N)=O)C(=O)CN(CCCCCCCCCC)C(=O)CN(CCCCCCCCCC)C(=O)CN(CCCCCCCCCC)C(=O)CN(CCc1ccccc1)C(=O)CN(CCc1ccccc1)C(=O)CN(CC1CCNCC1)C(=O)CN(CCc1ccccc1)C(=O)CN(CCc1ccccc1)C(=O)CN(CC1CCNCC1)C(=O)CN(CCc1ccccc1)C(=O)CN(CCc1ccccc1)C(=O)CNCC1CCNCC1 [Compound 31] | 35.7% | 348.5 nm | 0.404 |
| CCCCCCCCCCN(CC(N)=O)C(=O)CN(CCCCCCCCCC)C(=O)CN(CCCCCCCCCC)C(=O)CN(CCCCCCCCCC)C(=O)CN(CCc1ccccc1)C(=O)CN(CCc1ccccc1)C(=O)CN(CCCN)C(=O)CN(CCc1ccccc1)C(=O)CN(CCc1ccccc1)C(=O)CN(CCCN)C(=O)CN(CCc1ccccc1)C(=O)CN(CCc1ccccc1)C(=O)CNCCCN [Compound 28] | 52.0% | 308 nm | 0.085 |
| CCCCCCCCCCN(CC(N)=O)C(=O)CN(CCCCCCCCCC)C(=O)CN(CCCCCCCCCC)C(=O)CN(CCCCCCCCCC)C(=O)CN(CCc1ccccc1)C(=O)CN(CCc1ccccc1)C(=O)CN(CCNC)C(=O)CN(CCc1ccccc1)C(=O)CN(CCc1ccccc1)C(=O)CN(CCNC)C(=O)CN(CCc1ccccc1)C(=O)CN(CCc1ccccc1)C(=O)CNCCNC [Compound 25] | 8.4% | 773.3 nm | 0.021 |
| CCCCCCCCCCN(CC(N)=O)C(=O)CN(CCCCCCCCCC)C(=O)CN(CCc1ccccc1)C(=O)CN(CCc1ccccc1)C(=O)CN(CC1CCCN1)C(=O)CN(CCc1ccccc1)C(=O)CN(CCc1ccccc1)C(=O)CN(CC1CCCN1)C(=O)CN(CCc1ccccc1)C(=O)CN(CCc1ccccc1)C(=O)CNCC1CCCN1 (centres unmarked) [Compound 36] | 71.5% | 374.4 nm | 0.127 |
| CCCCCCCCCCN(CC(N)=O)C(=O)CN(CCc1ccccc1)C(=O)CN(CCc1ccccc1)C(=O)CN(CCN)C(=O)CN(CCc1ccccc1)C(=O)CN(CCc1ccccc1)C(=O)CN(CCN)C(=O)CN(CCc1ccccc1)C(=O)CN(CCc1ccccc1)C(=O)CNCCN [Compound 6] | 92.4% | 448.6 nm | 0.348 |
| CCCCCCCCCCCCCCCCCCN(CC(N)=O)C(=O)CN(CCCCCCCCCCCCCCCCCC)C(=O)CN(CCc1ccccc1)C(=O)CN(CCc1ccccc1)C(=O)CN(CCN)C(=O)CN(CCc1ccccc1)C(=O)CN(CCc1ccccc1)C(=O)CN(CCN)C(=O)CN(CCc1ccccc1)C(=O)CN(CCc1ccccc1)C(=O)CNCCN [Compound 5] | 88.3% | 364.7 nm | 0.308 |
| CCCCCCCCCCN(CC(N)=O)C(=O)CN(CCCCCCCCCC)C(=O)CN(CCc1ccccc1)C(=O)CN(CCc1ccccc1)C(=O)CN(CCNC)C(=O)CN(CCc1ccccc1)C(=O)CN(CCc1ccccc1)C(=O)CN(CCNC)C(=O)CN(CCc1ccccc1)C(=O)CN(CCc1ccccc1)C(=O)CNCCNC [Compound 27] | 50.9% | 438.7 nm | 0.606 |
| CCCCCCCCCCN(CC(N)=O)C(=O)CN(CCCCCCCCCC)C(=O)CN(CCc1ccccc1)C(=O)CN(CCc1ccccc1)C(=O)CN(CCN)C(=O)CN(CCc1ccccc1)C(=O)CN(CCc1ccccc1)C(=O)CN(CCN)C(=O)CN(CCc1ccccc1)C(=O)CN(CCc1ccccc1)C(=O)CNCCN [Compound 2] | 100.3% | 150 nm | 0.128 |
| CCCCCCCCCCN(CC(N)=O)C(=O)CN(CCCCCCCCCC)C(=O)CN(CCc1ccccc1)C(=O)CN(CCc1ccccc1)C(=O)CN(CCN)C(=O)CN(CCc1ccccc1)C(=O)CN(CCc1ccccc1)C(=O)CNCCN [Compound 10] | 92.6% | 157 nm | 0.009 |
| CCCCCCCCCCN(CC(N)=O)C(=O)CN(CCCCCCCCCC)C(=O)CN(CCCCCCCCCC)C(=O)CN(CCCCCCCCCC)C(=O)CN(CCCCCCCCCC)C(=O)CN(CCCCCCCCCC)C(=O)CN(CCCCCCCCCC)C(=O)CN(CCc1ccccc1)C(=O)CN(CCc1ccccc1)C(=O)CN(CCN)C(=O)CN(CCc1ccccc1)C(=O)CN(CCc1ccccc1)C(=O)CN(CCN)C(=O)CN(CCc1ccccc1)C(=O)CN(CCc1ccccc1)C(=O)CNCCN [Compound 23] | 3.9% |  |  |
| CCCCCCCCCCN(CC(N)=O)C(=O)CN(CCCCCCCCCC)C(=O)CN(CCc1ccccc1)C(=O)CN(CCN)C(=O)CN(CCc1ccccc1)C(=O)CN(CCN)C(=O)CN(CCc1ccccc1)C(=O)CNCCN [Compound 13] | 90.4% | 822.6 nm | 0.447 |
| CCCCCCCCCCN(CC(=O)N(CCN)CC(=O)N(CCc1ccccc1)CC(=O)N(CCc1ccccc1)CC(=O)N(CCCCCCCCCC)CC(=O)N(CCN)CC(=O)N(CCc1ccccc1)CC(=O)N(CCc1ccccc1)CC(N)=O)C(=O)CN(CCc1ccccc1)C(=O)CN(CCc1ccccc1)C(=O)CNCCN [Compound 17] | 90.3% | 472.8 nm | 0.37 |
| CCCCCCCCCCCCN(CC(N)=O)C(=O)CN(CCCCCCCCCCCC)C(=O)CN(CCc1ccc(OC)cc1)C(=O)CN(CCc1ccc(OC)cc1)C(=O)CN(CCN)C(=O)CN(CCc1ccc(OC)cc1)C(=O)CN(CCc1ccc(OC)cc1)C(=O)CN(CCN)C(=O)CN(CCc1ccc(OC)cc1)C(=O)CN(CCc1ccc(OC)cc1)C(=O)CNCCN [Compound 4] | 99.0% | 326.7 nm | 0.191 |
| CCCCCCCCCCCCN(CC(N)=O)C(=O)CN(CCCCCCCCCCCC)C(=O)CN(CCc1ccccc1)C(=O)CN(CCc1ccccc1)C(=O)CN(CCN)C(=O)CN(CCc1ccccc1)C(=O)CN(CCc1ccccc1)C(=O)CN(CCN)C(=O)CN(CCc1ccccc1)C(=O)CN(CCc1ccccc1)C(=O)CNCCN [Compound 3] | 95.9% | 255.3 nm | 0.247 |
| CCCCCCCCCCN(CC(N)=O)C(=O)CN(CCCCCCCCCC)C(=O)CN(CCCCCCCCCC)C(=O)CN(CCCCCCCCCC)C(=O)CN(CCCCCCCCCC)C(=O)CN(CCCCCCCCCC)C(=O)CN(CCc1ccccc1)C(=O)CN(CCc1ccccc1)C(=O)CN(CCN)C(=O)CN(CCc1ccccc1)C(=O)CN(CCc1ccccc1)C(=O)CN(CCN)C(=O)CN(CCc1ccccc1)C(=O)CN(CCc1ccccc1)C(=O)CNCCN [Compound 22] | 65.4% | 748.2 nm | 0.538 |
| CCCCCCCCCCN(CC(N)=O)C(=O)CN(CCCCCCCCCC)C(=O)CN(CCCCCCCCCC)C(=O)CN(CCCCCCCCCC)C(=O)CN(CCc1ccccc1)C(=O)CN(CCc1ccccc1)C(=O)CN(CCNC)C(=O)CN(CCc1ccccc1)C(=O)CN(CCc1ccccc1)C(=O)CN(CCNC)C(=O)CN(CCc1ccccc1)C(=O)CN(CCc1ccccc1)C(=O)CN(CCNC)C(=O)CN(CCc1ccccc1)C(=O)CN(CCc1ccccc1)C(=O)CNCCNC [Compound 26] | 35.7% |  |  |
